These results are taken from US12458818B2, “Anti-trophoblast cell surface antigen 2 (TROP2) antibodies and antibody drug conjugates comprising same” (CSPC MEGALITH BIOPHARMACEUTICAL CO., LTD., priority 2019, dated 2025).

Residue numbers refer to the chain shown, from its start.

Assay [1] has as its system NCI-N87. Nature of the assay: In vitro cytotoxicity assay, NCI-N87. In kind it is cell-based. To be noted: NCI-N87 human gastric carcinoma cell line. The method, then: (§1) DP002-HC1LC1-ADC is an antibody-drug conjugate comprising anti-TROP antibody DP002-HC1LC1, which comprises HCl (SEQ ID NO: 52) and LC 1 (SEQ ID NO: 58), conjugated to monomethyl auristatin E (MMAE) at a drug-antibody ratio (DAR) of 2. A DP002-HC1LC1-ADC was prepared using a conjugation method described in WO 2015/191883. A series of in vitro cytotoxicity assays were performed to assess the ability of DP002-HC1LC1-ADC to inhibit the growth of the following TROP2 expressing cancer cell lines: HCC1954 (a human breast carcinoma cell line), BxPC-3 (a human pancreatic adenocarcinoma cell line), and NCI-N87 (a human gastric carcinoma cell line). Experiments using staurospirone, a positive apoptosis control, and anti-TROP2 antibody DP002-HC4LC5, which comprises HC4 (SEQ ID NO: 55) and LC5 (SEQ ID NO: 62), were performed in parallel.

In assay [2] the test system is HCC1954. Nature of the assay: In vitro cytotoxicity assay, HCC1954. In kind it is cell-based. To be noted: HCC1954 human breast carcinoma cell line. The method, then:
as §1

Assay [3] concerns HCC38. Nature of the assay: In vitro cytotoxicity assay, HCC38. In kind it is cell-based. To be noted: HCC38 TROP2+ human mammary ductal carcinoma cell line. The procedure: (§2) Additional in vitro cytotoxicity assays were performed to test the ability of DP002-HC1LC1-ADC to inhibit the growth of MDA-MB-468 (a TROP2^+ human breast adenocarcinoma cell line) and HCC38 (a TROP2^+ human mammary ductal carcinoma cell line).

Assay [4] concerns MDA-MB-468. Nature of the assay: In vitro cytotoxicity assay, MDA-MB-468. As to conditions: MDA-MB-468 TROP2+ human breast adenocarcinoma cell line. In kind it is cell-based. The method, then:
as §2

In assay [5] the test system is BxPC-3. Nature of the assay: In vitro cytotoxicity assay, BxPC-3. In kind it is cell-based. To be noted: BxPC-3 human pancreatic adenocarcinoma cell line. The method, then:
as §1

In assay [6] the target is T1, human TROP2 (Homo sapiens, UniProt P09758).
T1 sequence (P09758 27-323): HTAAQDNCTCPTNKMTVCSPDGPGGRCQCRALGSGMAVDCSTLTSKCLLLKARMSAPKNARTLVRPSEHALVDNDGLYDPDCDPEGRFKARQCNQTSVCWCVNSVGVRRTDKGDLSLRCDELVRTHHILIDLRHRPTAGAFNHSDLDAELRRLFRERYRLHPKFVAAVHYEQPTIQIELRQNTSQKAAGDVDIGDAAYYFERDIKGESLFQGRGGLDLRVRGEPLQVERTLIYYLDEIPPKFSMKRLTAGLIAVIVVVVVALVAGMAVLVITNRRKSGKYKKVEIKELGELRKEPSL
Nature of the assay: Surface plasmon resonance kinetics and affinities (Table 8B). The assay is classed as binding. To be noted: SPR, analyte TROP2. The procedure: Surface plasmon resonance (SPR) experiments were performed to determine the kinetics and affinities of certain antibodies shown in Table 8A.
In general terms: In SPR one partner is held on a chip, and binding of the other changes the refractive index at the surface.

For assay [7], the system named is SKBR3 cells. Nature of the assay: FACS internalization of anti-TROP2 antibodies by SKBR3 cells. The assay is classed as cell-based, human. To be noted: 20 nM antibody mixed with 60 nM pHAb-labelled secondary antibody, overnight incubation. The procedure: FACS experiments were performed to verify that antibodies 1B3, 15D9, 15A10, 17B6, and 17D1 were internalized by SKBR3 cells. SKBR3 is a TROP2-expressing human breast carcinoma cell line. Briefly, 1.2×10^5 SKBR3 cells were seeded into each 12-well plates and cultured overnight. 300 μL of 20 nM control antibody, 1B3, 15D9, 15A10, 17B6, or 17D1 (in DMEM-10) were mixed with 300 μL 60 nM pHAb-labelled secondary antibody for 15 minutes at room temperature in the dark. The labeled antibodies mixtures were added to the SKBR3 cells and incubated overnight. Following overnight incubation, the SKBR3 cells were trypsinized, washed twice with 1% BSA/PBS, and analyzed via flow cytometry.

Consider `CN[C@@H]1C[C@H]2O[C@@](C)([C@@H]1OC)n1c3ccccc3c3c4c(c5c6ccccc6n2c5c31)C(=O)NC4` [Staurosprione, staurospirone], for which the IC50 (usually the concentration that inhibits the measured activity by half) stood at 9.31 nM in assay [1]; 21.7 nM in assay [2]; 4.26 nM in assay [3]; 14.7 nM in assay [4]; 5.37 nM in assay [5]. Further, the Max % inhibition in assay [1] was 93.44%; in assay [1] (listed as staurospirone) it was “greater than 93%”; in assay [2] it was 95.12%; in assay [2] (listed as staurospirone) it was “greater than 93%”; in assay [3], 99.44%; in assay [4], 92.38%. For the same molecule, the values for the Max % inhibition in assay [5] and in assay [5] (listed as staurospirone) were 98.02% and “greater than 93%”, respectively.
Take “Control: biosimilar of the anti-TROP2 antibody sacituzumab [reference compound]”: in assay [6], the Kd (commonly the constant that tells how readily two partners part at equilibrium) stood at 0.4 nM, the Rmax is 50.7, the “ka” value stood at 511000 M⁻¹ s⁻¹ and the “kd” value worked out at 0.000204 s⁻¹.

B1: 1B3: mouse anti-human TROP2 antibody, VH SEQ ID NO: 22, VL SEQ ID NO: 27 (antibody, V domains shown)
VH: QVQLQQSGAELVRPGVSVKISCKGSGYTFTDYSINWVKQSHAKSLEWIGVISTYYGDASYNQKFKGKATMTVDKSSSTAYMELARLTSEDSAIYYCARYGDGYNQFDYWGQGTTLTVSS
VL: DIVLTQSPASLAVSLGQRATISCRVSESVDSYGNNFMHWYQQKPGQPPKLLIYRASNLESGVPARFSGSGSGTDFTLTINPMEADDVATYYCQQSYEDPYTFGGGTKLEIK
As to B1, the “internalization by SKBR3 cells (flow cytometry)” value (“internalization by SKBR3 cells” for short) in assay [7] is reported as “internalized”.

B2: 15D9: mouse anti-human TROP2 antibody, VH SEQ ID NO: 24, VL SEQ ID NO: 29 (antibody, V domains shown)
VH: QVQLQQSGAELVRPGVSVKISCKGSGYTFTDYSIHWVKQSHAKSLEWIGVISSYYGDATYNQKFKGKATMTVDKSSSTAYMELARLTSEDSAIYYCALLGAYNYFDYWGQGTTLTVSS
VL: B1 VL with V25A, N35S, I52V, V62I, G72R, M82V, Y100P
As to B2, the “internalization by SKBR3 cells” value in assay [7] is “internalized”.

B3: 17D1: mouse anti-human TROP2 antibody, VH SEQ ID NO: 25, VL SEQ ID NO: 30 (antibody, V domains shown)
VH: B2 VH with V50L, S53T, N61T
VL: B1 VL with V25A, N35S, I52V, V62I, G72R, M82V, V87I, Y100P
As for B3, in assay [7], the “internalization by SKBR3 cells” value is listed as “internalized”.

B4: 15A10: mouse anti-human TROP2 antibody, VH SEQ ID NO: 23, VL SEQ ID NO: 28 (antibody, V domains shown)
VH: EVQLEQSGPGLVQPSQSLSITCTVSGFSLTRYGVHWVRQSPGRSLEWLGVIWSGGNTDYNAAFISRLTITKDNSKSQVFFKMNSLQPNDTGVYYCAREDRYVGEFAYWGQGTLVTVSA
VL: B1 VL with P8T, V25A, N35S, M37I, V62I, G72R, M82V, Y96N, Y100R
For the molecule B4, the “internalization by SKBR3 cells” value in assay [7] is recorded as “internalized”.

B5: 17B6: mouse anti-human TROP2 antibody, VH SEQ ID NO: 26, VL SEQ ID NO: 31 (antibody, V domains shown)
VH: QVQLQQSGAELVRPGVSVKISCKGSGYTFTDYGMNWVKQSHAKSLEWIGVISTFYGDANYNQKFKGKATMTVDKSSSTAYMELARLTSEDSAIYYCARRGNYDSMDYWGQGTSVTVSS
VL: B1 VL with A9V, S10F, V25A, N35S, V62I, G72R, M82V, A88E, Y100P, K111E
On to B5, for which the “internalization by SKBR3 cells” value in assay [7] is given as “internalized”.
